Where two headings read alike, the source gives them in different places.
Assays:
[1] = system: L. donovani-iRFP axenic amastigotes; test: Antileishmanial effect on axenic amastigotes (iRFP fluorescence viability, 72 h); assay type: cell-based; details: Leishmania donovani
Description: (§1) For efficacy studies, L. donovani-iRFP, a genetically modified strain of L. donovani LV9 constitutively expressing the gene encoding the infrared fluorescent protein (iRFP) ([Melcón-Fernández et al., 2023]), was used. This strain was grown as promastigotes in Schneider's insect medium (Sigma-Aldrich, Merck, Darmstadt, Germany) supplemented with 20 % (v/v) foetal bovine serum (FBS) (Gibco, ThermoFisher Scientific, Waltham, MA, USA) and […] antibiotic cocktail (100 U/mL penicillin and 100 μg/mL streptomycin) (Hyclone, ThermoFisher Scientific, Waltham, MA, USA) at 26 °C until mice were infected ([Carballeira et al., 2016]). Axenic and intramacrophage amastigotes were isolated from six-to eight-week-old female Balb/c mice (see below) that had been infected intraperitoneally with 1.5 × 10^9 metacyclic L. donovani-iRFP promastigotes. To obtain axenic amastigotes, bone marrow was extracted from the femur and tibia of 8- to 10-week-old infected mice and passed through a 100 μm cell strainer. After centrifugation at 3500 rcf for 10 min at room temperature, cell suspensions were resuspended in medium containing 15 mM KCl; 136 mM KH2PO4; 10 mM K2HPO4.3H2O; 0.5 mM MgSO4.7H2O; 24 mM NaHCO3; 22 mM glucose; 1 mM glutamine, 1 × RPMI 1640 vitamin mix (Sigma-Aldrich, Merck, Darmstadt, Germany), 10 mM folic acid, 100 mM adenosine, 1 × RPMI amino acid mix (Sigma-Aldrich, Merck, Darmstadt, Germany), 5 mg/mL hemin, 25 mM 2-morpholinoethanesulfonic acid (MES) pH 5.6, supplemented with 10 % FBS (Gibco, ThermoFisher Scientific, Waltham, MA, USA) and antibiotic cocktail, and incubated at 37 °C and 5 % CO2. To obtain intramacrophage amastigotes, spleens from infected Balb/c mice were cut into pieces, ground with 2 mg/mL collagenase D (Merck, Darmstadt, Germany) and passed through a 100 μm cell strainer. The splenocyte-enriched cell suspension containing intramacrophage amastigotes was resuspended in RPMI medium (Gibco, Fisher Scientific International Inc., Pittsburgh, PA, USA) supplemented with 20 % FBS, 1 mM sodium pyruvate, 24 mM NaHCO3, 2 mM L-glutamine, 1 × RPMI vitamins, 25 mM HEPES pH 7.2 and antibiotic cocktail ([Ashok et al., 2016]).
(§2) The antileishmanial effect of the nitrofurans selected in this study was tested both in vitro on axenic L. donovani-iRFP amastigotes and ex vivo on intramacrophage amastigotes according to previously published methods ([Melcón-Fernández et al., 2023], [2024]; [Andrés-Rodríguez et al., 2024]). Assays were performed in a final volume of […] containing 20,000 axenic amastigotes or a number of L. donovani-iRFP-infected murine splenocytes representing 150,000 relative fluorescence units (RFU), in each well of a black 384-well microtiter plate with optical bottom. In addition, 40 μL of one-half serial dilutions of each compound in amastigotes culture medium (for axenic amastigotes) or in supplemented RPMI medium (for intramacrophage amastigotes) were added to each well. Positive (amphotericin B at a final concentration of 18 μM) and negative (0.1 % v/v DMSO) controls were included on each plate. The plates were incubated at 37 °C and 5 % CO2 for a maximum of 72 h. Fluorescence emitted by viable L. donovani-iRFP was measured on an Odyssey infrared imaging system (Li-Cor, NE, USA).
(§3) All experiments were carried out in triplicate and included at least three technical replicates. […] The SI was calculated from the CC50/EC50 ratio.

[2] = system: L. donovani-iRFP intramacrophage amastigotes; test: Ex vivo antileishmanial effect on intramacrophage amastigotes (infected murine splenocytes, iRFP fluorescence, 72 h); assay type: cell-based; details: Leishmania donovani, Splenocyte
Description: as §1, §2, §3

[3] = Cytotoxicity, alamarBlue, 72 h; assay type: cell-based; details: human
Description: (§4) For cytotoxicity tests, several mammalian cell lines were used. […] Primary cell cultures were also used to evaluate cytotoxicity. […] BMDM cells were differentiated for one week with 30 % […] from L929 cell line.
(§5) The in vitro cytotoxicity of the selected nitrofurans was evaluated in HepG2, RAW 264.7 cells, splenocytes and BMDM. In each well of a 96-well microtitre plate, 100 μL containing 10,000 HepG2 or RAW 264.7 cells were incubated for 24h at 37 °C and 5 % CO2 to allow the cells to settle. For primary cells, 100 μL containing 100,000 BMDM or 1,000,000 splenocytes were added to each well. Subsequently, […] of one-half serial dilutions of each compound diluted in DMEM (for HepG2 cells), RPMI medium (for RAW cells), splenocyte medium (for splenocytes) or BMDM medium supplemented with 10 % GM-CSF (for BMDM), were added to each well. The cytotoxic effect of the compounds was measured after 72 h of incubation at 37 °C and 5 % CO2. For this purpose, a 10 % (v/v) of the alamarBlue™ cell viability reagent (Invitrogen, Fisher Scientific International Inc., Pittsburgh, PA, USA) was added, and the reaction was incubated for 4 h at 37 °C and 5 % CO2. Fluorescence was measured using a Varioskan Lux spectrophotometer (ThermoFisher Scientific, Waltham, MA, USA). Positive controls consisting of 0.1 % (v/v) H2O2, and negative controls, consisting of 0.1 % (v/v) DMSO, were also included on each plate.
as §3

[4] = Cytotoxicity, alamarBlue, 72 h; assay type: cell-based, murine; details: mouse
Description: as §4, §5, §3

[5] = Cytotoxicity in primary splenocytes, alamarBlue, 72 h; assay type: cell-based; details: mouse
Description: as §4, §5, §3

[6] = Cytotoxicity in bone marrow-differentiated macrophages, alamarBlue, 72 h; assay type: cell-based; details: mouse
Description: as §4, §5, §3

[7] = system: L. donovani-iRFP axenic amastigotes; test: ROS production by axenic amastigotes (DCFH-DA, flow cytometry); assay type: cell-based, Leishmania donovani
Description: To assess ROS production in L. donovani-iRFP, axenic amastigotes were treated with nitrofurans at the concentration equivalent to their EC50 calculated in viability experiments. As positive control of oxidative stress induction, cultures were treated with 0.01 % H2O2 (v/v), whereas 0.03 % (v/v) DMSO was added as negative control. After an incubation period of 3 h at 37 °C, cells were harvested by centrifugation at 3500 rcf for 10 min, washed in phosphate-buffered saline (PBS), centrifuged again and resuspended in PBS. Cells were labeled with 5 μM 2′,7′-dichlorofluorescein diacetate (DCFH-DA, MedChemExpress) for 30 min at 37 °C. Then, cells were centrifuged at 3500 rcf for 5 min, washed, and resuspended in PBS. The cell suspension was stored at 4 °C until the analysis by flow cytometry, which was performed in a CytoFLEX SRT (Beckman Coulter). The experiment was carried out in triplicate and included three technical replicates.

L. donovani TryR = molecular target: T1, L. donovani TryR (Leishmania donovani, UniProt P39050); test: biochemical; details: for Type of inhibition: Lineweaver-Burk double reciprocal plot, varying T[S]2
T1 construct: endogenous in cells; host or cells: L. donovani-iRFP (LV9) axenic amastigotes, crude cell extract
Description: The activity of L. donovani TryR was measured in the presence of different concentrations of nitrofurans according to the protocol previously described ([Melcón-Fernández et al., 2023]). Briefly, 1 × 10^10 L. donovani-iRFP axenic amastigotes were washed twice in PBS and lysed with a solution containing 1 mM EDTA, 40 mM HEPES, 50 mM Tris HCl pH 7.5, 2 % (v/v) Triton X-100 and Pierce™ Protease Inhibitors Mini Tablets (ThermoFisher Scientific, Waltham, MA, USA). Cell extracts were prepared by mechanical disruption of the cells with 0.5 mm diameter glass beads (Merck, Darmstadt, Germany) and the supernatant obtained by centrifugation at 10,000 rcf for 5 min at 4 °C was used to measure TryR activity in 96-well plates. […] Cell extracts diluted in Tris HCl pH 7.5 (0.43 μg of total protein in 50 μL) were added to launch the reaction. The negative control consisted of 2.5 % DMSO, whereas the blank reaction included the TryR assay solution without T [S]2. […] To determine steady-state conditions, enzymatic activity was measured at 412 nm (ε = 14,150 M^−1 cm^−1) for a period of up to 120 min (with 5 min intervals) at 26 °C in a Varioskan Lux spectrophotometer (ThermoFisher Scientific, Waltham, MA, USA). The experiment was carried out in triplicate and included three technical replicates.

S. typhimurium TA100 = test: Ames mutagenicity test (Ames 384-ISO Well Test); details: for Mutagenic effect TA100-S9: with metabolic activation (S9 mix); for Mutagenic effect TA100: without S9 mix
Leishmania = system: Leishmania; set-up: method as in Domínguez-Asenjo et al., 2021; details: oral administration, spleen and liver; ref Domínguez-Asenjo et al., 2021; cited from earlier work
L. major = system: L. major; set-up: method as in Domínguez-Asenjo et al., 2021; details: ref Domínguez-Asenjo et al., 2021; cited from earlier work
[8] = HepG2 cells, 72 h, alamarBlue, read-out: HepG2 cells CC50
[9] = RAW 264.7 cells, 72 h, alamarBlue, read-out: RAW 264.7 cells CC50
[10] = compound at its axenic EC50, 3 h
[11] = primary splenocytes from healthy, non-infected mice, 72 h, alamarBlue, uninfected mice, read-out: Splenocytes CC50
[12] = bone marrow-differentiated macrophages (BMDM), 72 h, alamarBlue, uninfected mice, read-out: BMDM CC50
[13] = T[S]2 25-150 μM, inhibitor 6.25-100 μM, NADPH 0.20 mM, read-out: Ki
[14] = positive control 0.01 % (v/v), 3 h

T1 sequence (P39050 whole entry): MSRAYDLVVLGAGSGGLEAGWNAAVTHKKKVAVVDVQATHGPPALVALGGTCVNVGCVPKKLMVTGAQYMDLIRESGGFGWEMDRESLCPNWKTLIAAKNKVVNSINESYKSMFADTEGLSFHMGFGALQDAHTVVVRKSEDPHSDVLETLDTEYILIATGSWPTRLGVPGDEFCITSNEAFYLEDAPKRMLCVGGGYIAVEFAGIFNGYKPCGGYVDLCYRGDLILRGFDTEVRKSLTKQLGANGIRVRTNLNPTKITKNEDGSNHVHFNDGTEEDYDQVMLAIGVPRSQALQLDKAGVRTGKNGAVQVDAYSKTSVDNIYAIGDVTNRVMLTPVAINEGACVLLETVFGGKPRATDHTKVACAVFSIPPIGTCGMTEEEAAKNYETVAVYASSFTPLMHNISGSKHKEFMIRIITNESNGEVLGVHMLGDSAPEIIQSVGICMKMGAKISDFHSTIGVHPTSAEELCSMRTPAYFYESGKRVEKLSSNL

SMILES	EC50 [1]	EC50 [2]	CC50 at 72 h [3, 8]	CC50 at 72 h [4, 9]	Negative ROS (unstressed population) [7, 10]	Positive ROS (stressed population) [7, 10]	Ki (L. donovani TryR)	Type of inhibition (L. donovani TryR)	CC50 at 72 h [5, 11]	CC50 at 72 h [6, 12]	Ki (L. donovani TryR; [13])	also measured
CC1CS(=O)(=O)CCN1/N=C/c1ccc([N+](=O)[O-])o1 (stereo not drawn) [Nifurtimox]	3.96 ± 0.37 µM	1 ± 0.07 µM	84.9 ± 12.4 µM	50.5 ± 2.25 µM	31.9%	68.1%	33.5 ± 6.93 µM	Uncompetitive	–	–	–	CC50 at 72 h ([5]; 72 h, alamarBlue, uninfected mice, read-out: Splenocytes CC50): 37.8 ± 6.12 µM; CC50 at 72 h ([6]; 72 h, alamarBlue, uninfected mice, read-out: BMDM CC50): 60.2 ± 4.79 µM
NC(=O)N/N=C/c1ccc([N+](=O)[O-])o1 [Nitrofurazone]	0.49 ± 0.03 µM	0.49 ± 0.11 µM	65.5 ± 9.67 µM	39.6 ± 7.91 µM	44.1%	55.9%	–	Uncompetitive	38.9 ± 6.32 µM	40.6 ± 1.97 µM	25.8 ± 4.83 µM	Mutagenic effect TA100-S9 (S. typhimurium TA100; 0.5 μM): + (0.05); Mutagenic effect TA100 (S. typhimurium TA100; 0.5 μM): + (0.001); Mutagenic effect TA100-S9 (S. typhimurium TA100; 5.0 μM): + (0.001); Mutagenic effect TA100 (S. typhimurium TA100; 5.0 μM): + (0.05); Mutagenic effect TA100-S9 (S. typhimurium TA100; 50.0 μM): - ^b; Mutagenic effect TA100 (S. typhimurium TA100; 50.0 μM): - ^b
O=C1OCCN1/N=C/c1ccc([N+](=O)[O-])o1 [Furazolidone]	0.17 ± 0.01 µM	0.09 ± 0.004 µM	–	–	45.9%	54.1 ± 5.8%	13.7 ± 2.76 µM	Uncompetitive	–	–	–	Positive ROS (stressed population) ([7]; compound at its axenic EC50, 3 h, listed as FURAZOLIDONE): 54.1%
CC(=O)OC(OC(C)=O)c1ccc([N+](=O)[O-])o1 [5-nitro-2-furaldehide diacetate, 5-Nitro-2-furaldehyde diacetate]	3.48 ± 0.09 µM	4.6 ± 0.26 µM	–	–	31.1%	68.9%	77.2 ± 21.9 µM	Uncompetitive	–	–	–	CC50 at 72 h [3]: 24.1 ± 0.59 µM; CC50 at 72 h [4]: 15.6 ± 1.27 µM; CC50 at 72 h [5]: 11 ± 0.28 µM; CC50 at 72 h [6]: 11.9 ± 0.46 µM
OO [H2O2]	–	–	–	–	–	–	–	–	–	–	–	Negative ROS (unstressed population) [7, 14]: 28.5%; Positive ROS (stressed population) [7, 14]: 71.5%
N#Cc1ccc([N+](=O)[O-])o1 [5-nitro-2-furonitrile, 5-Nitro-2-furonitrile]	0.7 ± 0.05 µM	1.45 ± 0.11 µM	21.7 ± 0.39 µM	31.2 ± 5.04 µM	38.2%	61.8%	–	Competitive	8.49 ± 0.52 µM	25.8 ± 0.6 µM	24.8 ± 1.43 µM	–
CSCC1CN(/N=C/c2ccc([N+](=O)[O-])o2)C(=O)O1 (stereo not drawn) [Nifuratel]	–	–	–	–	–	–	–	–	–	–	–	reduction of parasite load (Leishmania): > 70%; outcome in cutaneous leishmaniasis model (L. major): complete remission
O=C1NN(c2ccc(F)c(Cl)c2)C(=O)C1=Cc1ccc([N+](=O)[O-])o1 [PYZD-4409, 1-(3-chloro-4-fluorophenyl)-4-[(5-nitro-2-furyl)methylene]-3,5-pyrazolidinedione]	1.27 ± 0.04 µM	> 100 µM	16.3 ± 0.56 µM	51.7 ± 8.03 µM	36.9%	63.1%	–	Competitive	11.7 ± 0.5 µM	20.8 ± 6.4 µM	7.63 ± 2.56 µM	–
O=C1CN(/N=C/c2ccc([N+](=O)[O-])o2)C(=O)N1 [Nitrofurantoin]	1.46 ± 0.08 µM	2.1 ± 0.26 µM	32 ± 4.58 µM	37.2 ± 7.05 µM	23.9%	76.1 ± 11.6%	31.2 ± 4.94 µM	Uncompetitive	33.2 ± 3.5 µM	56.3 ± 9.06 µM	–	Positive ROS (stressed population) ([7]; compound at its axenic EC50, 3 h, listed as NITROFURANTOIN): 76.1%

Source: paper PMC12344264, “Mechanistic, in-silico and in vitro studies with nitrofurans reveal potent leishmanicidal activity and inhibition of trypanothione reductase” (International Journal for Parasitology: Drugs and Drug …, 2025)
